Experimental data published in US20230167467A1, “METHODS AND COMPOSITIONS FOR THE PRODUCTION OF ISOBUTENE” (University of Alaska Anchorage, priority 2020, published 2023).
Converted amounts (≈) assume the structure as drawn. Read-outs that look alike come from different tables or passages of the source.

How the values were obtained:
[1] = at 20° C.; cited from earlier work
[2] = system: Engineered strains of E. coli; assay type: cell-based
[3] = system: 3-HIV; conditions: expressed in E. coli, plasmid based system, synthetic media; cited from earlier work
[4] = cited from earlier work; for Isobutene production: purified M3K
[5] = after solvent exposure, vs positive control

C=C(C)C [isobutene]
aqueous solubility [1]: 30 µg/mL (≈ 535 µM)
expression of accBC (fatty acid biosynthesis) [2]: downregulated
expression of bssRS (decreasing biofilm material) [2]: upregulated
expression of chaperone genes groLS and dnaJK [2]: increased expression
expression of gad genes [2]: increase in expression
expression of gadABCE (acid resistance via GABA production) [2]: upregulated
expression of glpABC (glycerol to glycerone phosphate) [2]: increased in expression
expression of heat shock proteins and chaperones hslJORUV [2]: no significant changes in expression
expression of ibpAB [2]: strong upregulation
expression of ibpAB and clpAB (protein protection and repair) [2]: increased
expression of marA [2]: upregulated
change in expression of gene adiA [2, 5]: 0.47 ± 0.86
change in expression of gene adiC [2, 5]: −1.83 ± 1.03
change in expression of gene adiY [2, 5]: 0.21 ± 0.65
change in expression of gene bhsA [2, 5]: 0.43 ± 0.86
change in expression of gene bssR [2, 5]: 3.93 ± 0.44
change in expression of gene bssS [2, 5]: 3.75 ± 0.84
change in expression of gene clpA [2, 5]: 1.73 ± 0.64
change in expression of gene clpB [2, 5]: 2.85 ± 0.69
change in expression of gene clpP [2, 5]: 0.09 ± 0.59
change in expression of gene coaA [2, 5]: −4.22 ± 0.95
change in expression of gene coaD [2, 5]: −3.52 ± 1.24
change in expression of gene cspA [2, 5]: −8.13 ± 0.67
change in expression of gene cspB [2, 5]: −9.03 ± 1.74
change in expression of gene cspC [2, 5]: −2.50 ± 0.94
change in expression of gene cspD [2, 5]: 3.12 ± 0.58
change in expression of gene cspE [2, 5]: −0.85 ± 0.63
change in expression of gene cspF [2, 5]: −7.27 ± 1.56
change in expression of gene dhaK [2, 5]: 2.25 ± 0.59
change in expression of gene dhaL [2, 5]: 0.48 ± 0.65
change in expression of gene dnaJ [2, 5]: 0.17 ± 0.70
change in expression of gene dnaK [2, 5]: 2.71 ± 0.66
change in expression of gene fabA [2, 5]: −2.35 ± 0.81
change in expression of gene fabB [2, 5]: −0.08 ± 0.68
change in expression of gene fabD [2, 5]: −1.92 ± 0.54
change in expression of gene flgA [2, 5]: −3.93 ± 1.72
change in expression of gene flgB [2, 5]: −7.15 ± 1.90
change in expression of gene flgC [2, 5]: −8.24 ± 2.24
change in expression of gene flgD [2, 5]: −6.54 ± 2.06
change in expression of gene flgE [2, 5]: −7.58 ± 1.51
change in expression of gene flgF [2, 5]: −7.63 ± 1.96
change in expression of gene flgG [2, 5]: −6.35 ± 1.72
change in expression of gene flgH [2, 5]: −4.44 ± 1.88
change in expression of gene gabD [2, 5]: −0.64 ± 1.36
change in expression of gene gabP [2, 5]: −3.65 ± 1.55
change in expression of gene gabT [2, 5]: −1.79 ± 1.38
change in expression of gene gadA [2, 5]: 1.22 ± 0.68
change in expression of gene gadB [2, 5]: 2.70 ± 0.79
change in expression of gene gadC [2, 5]: 3.17 ± 0.80
change in expression of gene gadE [2, 5]: 1.75 ± 0.60
change in expression of gene gadW [2, 5]: −4.21 ± 1.02
change in expression of gene gadX [2, 5]: −1.69 ± 0.57
change in expression of gene gadY [2, 5]: −1.72 ± 0.78
change in expression of gene glpA [2, 5]: 9.06 ± 0.87
change in expression of gene glpB [2, 5]: 6.10 ± 0.63
change in expression of gene glpC [2, 5]: 6.02 ± 0.80
change in expression of gene groL [2, 5]: 2.61 ± 0.57
change in expression of gene groS [2, 5]: 1.62 ± 0.50
change in expression of gene hchA [2, 5]: 3.41 ± 0.60
change in expression of gene hslJ [2, 5]: −1.24 ± 0.71
change in expression of gene hslO [2, 5]: −0.29 ± 0.66
change in expression of gene hslR [2, 5]: −0.04 ± 0.67
change in expression of gene hslU [2, 5]: 0.23 ± 0.56
change in expression of gene hslV [2, 5]: −1.15 ± 0.66
change in expression of gene ibpA [2, 5]: 3.97 ± 1.21
change in expression of gene ibpB [2, 5]: 3.99 ± 1.50
change in expression of gene lhgO [2, 5]: −1.00 ± 1.77
change in expression of gene lipA [2, 5]: −1.56 ± 0.63
change in expression of gene lipB [2, 5]: −4.07 ± 0.88
change in expression of gene narG [2, 5]: 4.31 ± 0.65
change in expression of gene narH [2, 5]: 3.55 ± 0.61
change in expression of gene narI [2, 5]: 1.31 ± 0.94
change in expression of gene narJ [2, 5]: 2.32 ± 0.68
change in expression of gene narK [2, 5]: −0.07 ± 0.89
change in expression of gene potA [2, 5]: −5.02 ± 0.89
change in expression of gene potB [2, 5]: −4.42 ± 1.50
change in expression of gene potC [2, 5]: −3.91 ± 1.44
change in expression of gene pspA [2, 5]: 7.14 ± 0.55
change in expression of gene pspB [2, 5]: 4.56 ± 0.68
change in expression of gene rpoA [2, 5]: −0.01 ± 0.44
change in expression of gene rpoB [2, 5]: −0.34 ± 0.40
change in expression of gene rpoC [2, 5]: −0.44 ± 0.39
change in expression of gene rpoD [2, 5]: −0.24 ± 0.70
change in expression of gene rpoE [2, 5]: −1.87 ± 0.62
change in expression of gene rpoH [2, 5]: 0.42 ± 0.52
change in expression of gene rpoN [2, 5]: −1.57 ± 0.49
change in expression of gene rpoS [2, 5]: 0.24 ± 0.48
change in expression of gene rpoZ [2, 5]: −2.12 ± 0.55
change in expression of gene spy [2, 5]: 2.48 ± 0.88
change in expression of gene tatA [2, 5]: −1.83 ± 0.52
change in expression of gene tatB [2, 5]: −2.68 ± 0.61
change in expression of gene tatC [2, 5]: −3.61 ± 1.20
change in expression of gene tatD [2, 5]: −4.46 ± 1.28
change in expression of gene tatE [2, 5]: 0.70 ± 0.64
number of genes with significant changes in expression ([2]; vs control, Bon Ferroni corrected p-value<0.05): 1384 genes

B1: M3K: mevalonate-3-kinase of Picrophilus torridus, enzyme and gene/transcript (optimized gene SEQ ID NO:1) (protein)
chain: MENYNVKTRAFPTIGIILLGGISDKKNRIPLHTTAGIAYTGINNDVYTETKLYVSKDEKSYIDGKEIDLNSDRSPSKVIDKFKHEILMRVNLDDENNLSIDSRNFNILSGSSDSGAAALGECIESIFEYNINIFTFENDLQRISESVGRSLYGGLTVNYANGRESLTEPLLEPEAFNNFTIIGAHFNIDRKPSNEIHENIIKHENYRERIKSAERKAKKLEELSRNANIKGIFELAESDTVEYHKMLHDVGVDIINDRMENLIERVKEMKNNFWNSYIVTGGPNVFVITEKKDVDKAMEGLNDLCDDIRLLKVAGKPQVISKNF
modifications: optimized gene; M3K optimized gene
isobutene production rates [3]: up to 507 pmol min^−1 g cells^−1
highest overall bioproduction of isobutene ([4]; purified M3K enzyme with 3-HIV, 50° C.): 2,880±140 pmol/min*mg protein
Isobutene production ([4]; 30° C.): 26±2 pmol*min-1 *mg protein
Isobutene production ([4]; 50° C.): 2,880±140 pmol*min-1 *mg protein
